Measurements as given in patent publication USRE48461E1, “Modulation of androgen receptor expression” (Ionis Pharmaceuticals, Inc., priority 2012, dated 2021).
Oligonucleotides are written 5' to 3', each unit as a sugar letter and its base; * is a phosphorothioate linkage, no mark a phosphodiester; rarer units and linkages stand in square brackets, end groups in braces. Plain capitals give the bases only. e = 2'-O-(2-methoxyethyl) (MOE); k = constrained ethyl (cEt); [5mC] = 5-methylcytosine; d = 2'-deoxy (DNA)

Experiments:
[1] = tested on: AR mRNA; assay: Antisense inhibition of human AR in HuVEC cells, single concentration (electroporation, qRT-PCR RTS3559); type: cell-based
Summary of the method: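 HuVEC cells electroporated with antisense oligonucleotides at a single concentration. AR mRNA quantified by qRT-PCR using human primer-probe set RTS3559 and normalised to total RNA content by RIBOGREEN.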

[2] = tested on: AR mRNA; assay: Dose-dependent antisense inhibition of human AR in HuVEC cells (electroporation, qRT-PCR RTS3559, IC50); type: cell-based; settings: HuVEC
Summary of the method: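 HuVEC cells dosed with antisense oligonucleotides by electroporation and treated approximately 16 hours. AR mRNA quantified by real-time qPCR with primer probe set RTS3559 and normalised to total RNA by RIBOGREEN; IC50 from dose-response.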

[3] = Table 24, 1,000 nM oligonucleotide, electroporation, approximately 24 hours, relative to untreated control
[4] = Table 35, electroporation, approximately 16 hours
[5] = Table 30, electroporation, approximately 16 hours
[6] = Table 20, 500 nM oligonucleotide, electroporation, approximately 24 hours, relative to untreated control
[7] = Table 33, electroporation, approximately 16 hours
[8] = 500 nM ASO, electroporation, ~24 h, Table 1
[9] = Table 32, electroporation, approximately 16 hours
[10] = Table 29, electroporation, approximately 16 hours
[11] = Table 34, electroporation, approximately 16 hours
[12] = Table 36, electroporation, approximately 16 hours

584166 (k[5mC]*kA*k[5mC]*dA*dT*d[5mC]*dA*dG*dA*dA*dG*dG*dA*kG*kT*kA; antisense) [compound 584166]
% inhibition [1, 3]: 89%
percent inhibition of AR, 46.9 nM [2, 4]: 34%
percent inhibition of AR, 187.5 nM [2, 4]: 52%
percent inhibition of AR, 750.0 nM [2, 4]: 84%
percent inhibition of AR, 3000.0 nM [2, 4]: 92%
IC50 [2, 4]: 100 nM

583727 (antisense kG*kA*kT*dT*d[5mC]*dT*dG*dG*dA*dA*dA*dG*d[5mC]*kT*k[5mC]*k[5mC]) [compound 583727]
% inhibition ([1]; 500 nM ASO, ~24 h, Table 18): 40%
percent inhibition of AR, 46.9 nM [2, 5]: 18%
percent inhibition of AR, 187.5 nM [2, 5]: 49%
percent inhibition of AR, 750.0 nM [2, 5]: 70%
percent inhibition of AR, 3000.0 nM [2, 5]: 76%
IC50 [2, 5]: 290 nM

583847 (kA*k[5mC]*kA*dG*d[5mC]*dG*dG*dG*dT*dG*dG*dA*dA*k[5mC]*kT*k[5mC]; antisense) [compound 583847]
% inhibition [1, 6]: 34%
percent inhibition of AR, 46.9 nM [2, 7]: 8%
percent inhibition of AR, 187.5 nM [2, 7]: 30%
percent inhibition of AR, 750.0 nM [2, 7]: 60%
percent inhibition of AR, 3000.0 nM [2, 7]: 84%
IC50 [2, 7]: 460 nM

549459 (kA*kT*kG*dG*dT*dT*dG*dA*dT*dT*dT*dA*dA*kT*kG*kG) [compound 549459]
% inhibition ([1]; 500 nM ASO, electroporation, ~24 h, Table 2): 96%
% inhibition ([1]; 500 nM ASO, ~24 h, Table 5): 92%
percent inhibition of AR ([2]; 31.25 nM, ~16 h, Table 6): 16%
percent inhibition of AR ([2]; 55.6 nM, ~16 h, Table 4): 61%
percent inhibition of AR ([2]; 62.5 nM, ~16 h, Table 6): 23%
percent inhibition of AR ([2]; 125.0 nM, ~16 h, Table 6): 50%
percent inhibition of AR ([2]; 166.7 nM, ~16 h, Table 4): 90%
percent inhibition of AR ([2]; 500.0 nM, ~16 h, Table 4): 94%
percent inhibition of AR ([2]; 500.0 nM, ~16 h, Table 6): 85%
percent inhibition of AR ([2]; 1000.0 nM, ~16 h, Table 6): 92%
percent inhibition of AR ([2]; 1500.0 nM, ~16 h, Table 4): 97%
IC50 ([2]; ~16 h, Table 4): 18 nM
IC50 ([2]; ~16 h, Table 6): 100 nM

549360 (kG*kG*kT*d[5mC]*dG*dA*dA*dG*dT*dG*d[5mC]*d[5mC]*d[5mC]*k[5mC]*k[5mC]*kT; antisense) [compound 549360]
% inhibition [1, 8]: 89%
percent inhibition of AR ([2]; 55.6 nM, ~16 h, Table 3): 44%
percent inhibition of AR ([2]; 166.7 nM, ~16 h, Table 3): 58%
percent inhibition of AR ([2]; 500.0 nM, ~16 h, Table 3): 79%
percent inhibition of AR ([2]; 1500.0 nM, ~16 h, Table 3): 83%
IC50 ([2]; ~16 h, Table 3): 116 nM

583797 (antisense kT*k[5mC]*kG*dG*dA*dT*dA*d[5mC]*dT*dG*d[5mC]*dT*dT*k[5mC]*k[5mC]*kT) [compound 583797]
% inhibition ([1]; Table 19, 500 nM oligonucleotide, electroporation, approximately 24 hours, relative to untreated control): 35%
percent inhibition of AR, 46.9 nM [2, 9]: 21%
percent inhibition of AR, 187.5 nM [2, 9]: 50%
percent inhibition of AR, 750.0 nM [2, 9]: 74%
percent inhibition of AR, 3000.0 nM [2, 9]: 82%
IC50 [2, 9]: 220 nM

549334 (k[5mC]*kA*k[5mC]*d[5mC]*dT*dG*d[5mC]*dG*dG*dG*dA*dA*dG*k[5mC]*kT*k[5mC]; antisense) [compound 549334]
% inhibition [1, 8]: 83%
percent inhibition of AR ([2]; 55.6 nM, ~16 h, Table 4): 29%
percent inhibition of AR ([2]; 166.7 nM, ~16 h, Table 4): 46%
percent inhibition of AR ([2]; 500.0 nM, ~16 h, Table 4): 63%
percent inhibition of AR ([2]; 1500.0 nM, ~16 h, Table 4): 72%
IC50 ([2]; ~16 h, Table 4): 253 nM

549387 (kA*kG*k[5mC]*dT*dT*d[5mC]*dA*dT*d[5mC]*dT*d[5mC]*d[5mC]*dA*k[5mC]*kA*kG; antisense) [compound 549387]
% inhibition [1, 8]: 84%
percent inhibition of AR ([2]; 55.6 nM, ~16 h, Table 4): 9%
percent inhibition of AR ([2]; 166.7 nM, ~16 h, Table 4): 41%
percent inhibition of AR ([2]; 500.0 nM, ~16 h, Table 4): 68%
percent inhibition of AR ([2]; 1500.0 nM, ~16 h, Table 4): 92%
IC50 ([2]; ~16 h, Table 4): 261 nM

560071 (eT*eG*eG*eT*eT*dG*dA*dT*dT*dT*dA*dA*dT*dG*dG*eT*eT*eG*e[5mC]*eA) [compound 560071]
% inhibition ([1]; 500 nM ASO, ~24 h, Table 5): 73%
percent inhibition of AR ([2]; 31.25 nM, ~16 h, Table 6): 7%
percent inhibition of AR ([2]; 62.5 nM, ~16 h, Table 6): 0%
percent inhibition of AR ([2]; 125.0 nM, ~16 h, Table 6): 19%
percent inhibition of AR ([2]; 500.0 nM, ~16 h, Table 6): 57%
percent inhibition of AR ([2]; 1000.0 nM, ~16 h, Table 6): 76%
IC50 ([2]; ~16 h, Table 6): 400 nM

583608 (antisense kG*k[5mC]*kT*dA*dG*d[5mC]*dT*d[5mC]*dG*d[5mC]*d[5mC]*d[5mC]*dG*k[5mC]*kT*k[5mC]) [compound 583608]
% inhibition ([1]; 500 nM ASO, ~24 h, Table 17): 51%
percent inhibition of AR, 46.9 nM [2, 10]: 12%
percent inhibition of AR, 187.5 nM [2, 10]: 46%
percent inhibition of AR, 750.0 nM [2, 10]: 67%
percent inhibition of AR, 3000.0 nM [2, 10]: 76%
IC50 [2, 10]: 350 nM

583736 (antisense kT*kG*kG*dA*dT*d[5mC]*dA*d[5mC]*dT*dT*d[5mC]*dG*d[5mC]*kG*k[5mC]*kA) [compound 583736]
% inhibition ([1]; 500 nM ASO, ~24 h, Table 18): 47%
percent inhibition of AR, 46.9 nM [2, 5]: 21%
percent inhibition of AR, 187.5 nM [2, 5]: 38%
percent inhibition of AR, 750.0 nM [2, 5]: 60%
percent inhibition of AR, 3000.0 nM [2, 5]: 63%
IC50 [2, 5]: 510 nM

583999 (kA*k[5mC]*k[5mC]*dA*dT*dG*d[5mC]*d[5mC]*dG*d[5mC]*d[5mC]*dA*dG*kG*kG*kT; antisense) [compound 583999]
% inhibition ([1]; Table 22, 500 nM oligonucleotide, electroporation, approximately 24 hours, relative to untreated control): 29%
percent inhibition of AR, 46.9 nM [2, 11]: 13%
percent inhibition of AR, 187.5 nM [2, 11]: 12%
percent inhibition of AR, 750.0 nM [2, 11]: 30%
percent inhibition of AR, 3000.0 nM [2, 11]: 64%
IC50 [2, 11]: 1530 nM

560100 (antisense kT*kG*kG*dT*dT*dG*dA*dT*dT*dT*dA*dA*dT*kG*kG*kT) [compound 560100]
% inhibition ([1]; 500 nM ASO, ~24 h, Table 5): 91%
percent inhibition of AR ([2]; 31.25 nM, ~16 h, Table 6): 16%
percent inhibition of AR ([2]; 62.5 nM, ~16 h, Table 6): 24%
percent inhibition of AR ([2]; 125.0 nM, ~16 h, Table 6): 53%
percent inhibition of AR ([2]; 500.0 nM, ~16 h, Table 6): 81%
percent inhibition of AR ([2]; 1000.0 nM, ~16 h, Table 6): 93%
IC50 ([2]; ~16 h, Table 6): 100 nM

583880 (kT*kT*kT*dG*dG*dT*dG*dT*dA*dA*d[5mC]*d[5mC]*dT*k[5mC]*k[5mC]*k[5mC]; antisense) [compound 583880]
% inhibition [1, 6]: 39%
percent inhibition of AR, 46.9 nM [2, 9]: 13%
percent inhibition of AR, 187.5 nM [2, 9]: 52%
percent inhibition of AR, 750.0 nM [2, 9]: 78%
percent inhibition of AR, 3000.0 nM [2, 9]: 92%
IC50 [2, 9]: 220 nM

584157 (kT*kT*kG*dA*dT*dG*dG*dA*dA*dT*dG*d[5mC]*dT*kG*kA*kT; antisense) [compound 584157]
% inhibition [1, 3]: 69%
percent inhibition of AR, 46.9 nM [2, 12]: 6%
percent inhibition of AR, 187.5 nM [2, 12]: 6%
percent inhibition of AR, 750.0 nM [2, 12]: 52%
percent inhibition of AR, 3000.0 nM [2, 12]: 82%
IC50 [2, 12]: 590 nM
